We go through 15 compounds from patent US20230357179A1, “RAF KINASE INHIBITORS AND METHODS OF USE THEREOF” (Deciphera Pharmaceuticals, LLC, priority 2021, published 2023).

Bounds are passed on as bounds.

In one assay the test system is Miapaca-2 cells. Nature of the assay: MiaPaca-2 cell proliferation assay (1), resazurin, 96-well. It is filed as cell-based. The following applies: Homo sapiens, MIA PaCa-2, inhibition of cell proliferation. In a few lines:
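Three thousand cells per well in DMEM with 10% FBS and 2.5% horse serum exposed to serially diluted compound in triplicate for 67-72 h at 37 °C, 5% CO2. Viability by resazurin (additional 5-6 h), fluorescence ex 540/em 600 nm; IC50 calculated.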
For `COC(=O)Nc1cc(-c2cccc(-c3cc(NC(=O)NCCC(C)(C)OC)c(F)cc3C)c2)ccn1` [Example 85], the half-maximal inhibitory concentration (IC50) is 500 to 1000 nM.

Regarding `Cc1cc(F)c(NC(=O)NCCC2(C)CC2)cc1-c1cc(OCCO)nc(-c2ccnc3[nH]ncc23)c1` [Example 87], the IC50 fell in the range of 1000 to 10000 nM.

Consider `Cc1cc(F)c(NC(=O)N[C@@H]2CC[C@H](F)C2)cc1-c1cc(OCCO)nc(-c2ccnc3[nH]ncc23)c1` [Example 88], for which the IC50 lay in the range of 1000 to 10000 nM.

For `Cc1cc(F)c(NC(=O)NCC[C@@H]2CCO2)cc1-c1cc(OCCO)nc(-c2ccnc3[nH]ncc23)c1` [Example 89], the half-maximal inhibitory concentration (IC50) was 1000 to 10000 nM.

Regarding `COC(C)(C)CCNC(=O)Nc1cc(-c2cc(OCCO)nc(-c3ccnc4[nH]ccc34)c2)c(C)cc1F` [Example 90], the concentration for half-maximal inhibition (IC50) was in the range of 1000 to 10000 nM.

For the compound `COC(C)(C)CCNC(=O)Nc1cc(-c2cc(OCCO)nc(-c3ccnc4[nH]ncc34)c2)c(C)cc1F` [Example 91], the IC50 was in the range of 1000 to 10000 nM.

With `Cc1cc(F)c(NC(=O)N2CCC(C)(C#N)CC2)cc1-c1cc(OCCO)nc(-c2ccnc3[nH]ncc23)c1` [Example 92], the half-inhibitory concentration (IC50) is 1000 to 10000 nM.

Consider `CNC(=O)c1cc(-c2cncc(-c3cc(NC(=O)N4CC[C@H](C(F)(F)F)C4)ccc3C)c2)ncn1` [Example 220], for which the concentration for half-maximal inhibition (IC50) is 1000 to 10000 nM.

The next assay has as its system WM3629 cells. Put plainly: WM3629 cell proliferation assay (1), resazurin, 96-well. The following applies: inhibition of cell proliferation. It is filed as cell-based. The protocol:
WM3629 Cell Proliferation Assay (1)
WM3629 cells (#WM3629-01-0001) are obtained from Rockland Immunochemicals Inc (Gilbertsville, PA). Briefly, cells were grown in MCDB 153 medium (Sigma, #M7403, St. Louis, MO) supplemented with 20% Leibovitz's L-15 (ThermoFisher #11415-064, Waltham, MA), 2% heat inactivated fetal bovine serum (ThermoFisher, #A3840001, Waltham, MA), 5 μg/mL Insulin (Bovine Pancreas) (Sigma, #I0516, St. Louis, MO), 1.68 mM Calcium Chloride (Sigma, #C-34006, St. Louis, MO) and 1% Penicillin/Streptomycin/L-Glutamine (ThermoFisher #10378016, Waltham, MA) at 37° C., 5% CO2, and 95% humidity. Cells are expanded until reaching 70-95% confluency at which point they are subcultured or harvested for assay use. A serial dilution of test compound is dispensed into a 96-well black clear bottom plate in triplicate. Four thousand five hundred cells are added per well in 200 μL complete growth medium in the 96-well plate. Plates are incubated for 67-72 hours at 37° C., 5% CO2, and 95% humidity. At the end of the incubation, 40 μL of a 440 μM solution of resazurin (Sigma, #199303, St. Louis, MO) in PBS is added to each well of the plate and plates are incubated for an additional 6-7 hours at 37° C., 5% CO2, and 95% humidity. Plates are read on a Synergy2 or equivalent reader (Biotek, Winooski VT) using an excitation of 540 nm and an emission of 600 nm. Data is analyzed using Prism software (GraphPad, San Diego, CA) to calculate IC50 values.
Turning to `CNC(=O)c1cc(-c2cc(-c3cc(NC(=O)N4CC[C@H](C(F)(F)F)C4)ccc3C)ccn2)ccn1` [Example 215], the half-inhibitory concentration (IC50) was at most 100 nM.

Turning to `COC(=O)Nc1cc(-c2cncc(-c3cc(NC(=O)N4CC[C@H](C(F)(F)F)C4)ccc3C)c2)ncn1` [Example 224], the IC50 is at most 100 nM.

In the case of `CNC(=O)c1cc(-c2cc(-c3cc(NC(=O)N4CC[C@H](C(C)C)C4)ccc3C)ccn2)ccn1` [Example 225], the concentration for half-maximal inhibition (IC50) was at most 100 nM.

A further assay deals with T1, A-Raf kinase (Homo sapiens, UniProt P10398, Y301D/Y302D).
T1 construct: purchased Sigma
T1 sequence (P10398 with tags, fused parts or gaps Y301D/Y302D): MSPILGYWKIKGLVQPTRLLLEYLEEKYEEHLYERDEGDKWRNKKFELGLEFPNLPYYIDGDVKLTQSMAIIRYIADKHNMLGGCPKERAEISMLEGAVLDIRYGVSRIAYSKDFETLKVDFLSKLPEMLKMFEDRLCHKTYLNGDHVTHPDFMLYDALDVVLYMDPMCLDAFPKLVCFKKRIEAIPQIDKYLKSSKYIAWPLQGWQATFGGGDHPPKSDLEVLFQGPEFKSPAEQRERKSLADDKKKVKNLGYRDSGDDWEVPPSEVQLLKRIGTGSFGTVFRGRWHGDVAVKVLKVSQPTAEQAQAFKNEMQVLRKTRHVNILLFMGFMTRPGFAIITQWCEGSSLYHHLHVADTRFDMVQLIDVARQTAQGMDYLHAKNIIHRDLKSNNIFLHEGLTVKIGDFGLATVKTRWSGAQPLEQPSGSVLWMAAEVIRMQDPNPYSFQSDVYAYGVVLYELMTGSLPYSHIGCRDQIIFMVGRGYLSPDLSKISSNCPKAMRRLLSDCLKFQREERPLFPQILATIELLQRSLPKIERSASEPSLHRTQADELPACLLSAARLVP
Put plainly: Biochemical assay for A-Raf.2 (coupled pyruvate kinase/lactate dehydrogenase). As to conditions: read-out: ARAF.2 IC50. The protocol: Biochemical Assay for A-Raf.2
Activity of A-Raf kinase (SEQ. ID No: 1) was determined spectroscopically using a coupled pyruvate kinase/lactate dehydrogenase assay that continuously monitors the ATP hydrolysis-dependent oxidation of NADH (e.g., Schindler et al., Science, 2000, 289, 1938-1942). Assays were conducted in 384-well plates (25 μL final volume) using 20 nM A-Raf (Eurofins), 1.5 units pyruvate kinase, 2.1 units lactate dehydrogenase, 1 mM phosphoenol pyruvate, 0.7 mM NADH, 100 nM MEK (SignalChem), and 1 mM ATP in assay buffer (100 mM Tris, pH 7.5, 15 mM MgCl2, 0.5 mM DTT, 0.1% octyl-glucoside, 0.002% (w/v) BSA, and 0.002% Triton X-100). Inhibition of A-Raf was measured by adding serial diluted test compound (final assay concentration of 1% DMSO). A decrease in absorption at 340 nm was monitored hourly for 4 h at 30° C. on a multi-mode microplate reader (BioTek). The reaction rate was calculated using the 3 to 4 h time frame. The reaction rate at each concentration of compound was converted to percent inhibition using controls (i.e., reaction with no test compound and reaction with a known inhibitor) and IC50 values were calculated by fitting a four-parameter sigmoidal curve to the data using Prism (GraphPad software).
For `CNC(=O)c1cc(-c2cc(-c3cc(NC(=O)N4CC[C@H](C(F)(F)F)C4)ccc3C)ccn2)ccn1` [Example 215], the half-maximal inhibitory concentration (IC50) was over 1000 nM.

Take `CNC(=O)c1cc(-c2cncc(-c3cc(NC(=O)N4CC[C@H](C(F)(F)F)C4)ccc3C)c2)ncn1` [Example 220]: the IC50 is over 1000 nM.

`COC(=O)Nc1cc(-c2cncc(-c3cc(NC(=O)N4CC[C@H](C(F)(F)F)C4)ccc3C)c2)ncn1` [Example 224]: the IC50 lay in the range of 100 to 500 nM.

Turning to `CNC(=O)c1cc(-c2cc(-c3cc(NC(=O)N4CC[C@H](C(C)C)C4)ccc3C)ccn2)ccn1` [Example 225], the IC50 is over 1000 nM.

Turning to `CNC(=O)c1cc(-c2cncc(-c3cc(NC(=O)N4CC[C@H](C(C)C)C4)ccc3C)c2)ncn1` [Example 226], the IC50 is over 1000 nM.

Regarding `Cc1ccc(NC(=O)N2CC[C@H](C)C2)cc1-c1cncc(-c2cc(NC(=O)C3CC3)ncn2)c1` [Example 227], the IC50 was at most 100 nM.

Turning to `CNC(=O)c1cc(-c2cncc(-c3cc(NC(=O)N4CC[C@H](C(F)(F)F)C4)ccc3C)c2)ccn1` [Example 228], the IC50 is over 1000 nM.

Turning to `CNC(=O)c1cc(-c2cncc(-c3cc(NC(=O)N4CC[C@H](C(C)C)C4)ccc3C)c2)ccn1` [Example 229], the concentration for half-maximal inhibition (IC50) was over 1000 nM.

Another assay relates to H2405 cells. Nature of the assay: H2405 cell proliferation assay (2), resazurin, 384-well. It is filed as cell-based. As to conditions: Homo sapiens, NCI-H2405, inhibition of cell proliferation, 67-72 h. Here is the method:
H2405 Cell Proliferation Assay (2)
H2405 cells (catalog #CRL-5994) are obtained from the American Type Culture Collect (ATTC, Manassas, VA). Briefly, cells were grown in RPMI 1640 supplemented with 5% characterized fetal bovine serum (Invitrogen, Carlsbad, CA) and 1% Penicillin/Streptomycin/L-Glutamine at 37° C., 5% CO2, and 95% humidity. Cells are expanded until reaching 70-95% confluency at which point they are sub-cultured or harvested for assay use. A serial dilution of test compound is dispensed into a 384-well black clear bottom plate in triplicate. Seven hundred fifty cells are added per well in 50 μL complete growth medium in the 384-well plate. Plates are incubated for 67-72 h at 37° C., 5% CO2, and 95% humidity. At the end of the incubation, 10 μL of a 440 μM solution of resazurin (Sigma, St. Louis, MO) in PBS is added to each well of the plate and plates are incubated for an additional 5-6 h at 37° C., 5% CO2, and 95% humidity. Plates are read on a Synergy2 or equivalent reader (Biotek, Winooski VT) using an excitation of 540 nm and an emission of 600 nm. Data is analyzed using Prism software (GraphPad, San Diego, CA) to calculate IC50 values
Turning to `CNC(=O)c1cc(-c2cc(-c3cc(NC(=O)N4CC[C@H](C(F)(F)F)C4)ccc3C)ccn2)ccn1` [Example 215], the 50% inhibitory concentration (IC50) fell in the range of 100 to 500 nM.

On to `COC(=O)Nc1cc(-c2cncc(-c3cc(NC(=O)N4CC[C@H](C(F)(F)F)C4)ccc3C)c2)ncn1` [Example 224], for which the IC50 is at most 100 nM.

As for `Cc1ccc(NC(=O)N2CC[C@H](C)C2)cc1-c1cncc(-c2cc(NC(=O)C3CC3)ncn2)c1` [Example 227], the IC50 fell in the range of 1000 to 10000 nM.

In the case of `CNC(=O)c1cc(-c2cncc(-c3cc(NC(=O)N4CC[C@H](C(F)(F)F)C4)ccc3C)c2)ccn1` [Example 228], the IC50 fell in the range of 100 to 500 nM.

Turning to `CNC(=O)c1cc(-c2cncc(-c3cc(NC(=O)N4CC[C@H](C(C)C)C4)ccc3C)c2)ccn1` [Example 229], the IC50 is 500 to 1000 nM.
